Measurements taken from publication PMC11995724, “Antibiotic target discovery by integrated phenotypic and activity-based profiling of electrophilic fragments” (Cell chemical biology, 2025).
Where a name gives a salt, the structure may show the parent alone.

Test: in vitro
Conditions: human, hek293t cells

Row | SMILES | viability at 48 h, 25 µM [%]
1 | O=C(CCl)NCCc1ccn(C2CCCC2)n1 [7-L20, 2-chloro-N-[2-(1-cyclopentyl-1H-pyrazol-3-yl)ethyl]acetamide] | 38.7
2 | CC(NC(=O)CCl)c1nnc(-c2ccccc2F)s1 (centres unmarked) [7-L21, 2-chloro-N-{1-[5-(2-fluorophenyl)-1,3,4-thiadiazol-2-yl]ethyl}acetamide] | 0.564
3 | Cc1cc(CNC(=O)CCl)[nH]n1 [7-L22, 2-chloro-N-[(3-methyl-1H-pyrazol-5-yl)methyl]acetamide] | 90.6
4 | Cc1cnc(C(C)N2CCN(C(=O)C(C)Cl)CC2)s1 (centres unmarked) [7-M03, 2-chloro-1-{4-[1-(5-methyl-1,3-thiazol-2-yl)ethyl]piperazin-1-yl}propan-1-one] | 97.5
5 | CC(Cl)C(=O)N(C)Cc1cn(C)nc1C(F)(F)F (centres unmarked) [7-M04, 2-chloro-N-methyl-N-{[1-methyl-3-(trifluoromethyl)-1H-pyrazol-4-yl]methyl}propanamide] | 91.6
6 | CC(Cl)C(=O)NCC1CCCN(c2nccn3cnnc23)C1 (centres unmarked) [7-M05, 2-chloro-N-[(1-{[1,2,4]triazolo[4,3-a]pyrazin-8-yl}piperidin-3-yl)methyl]propanamide] | 102
7 | CCc1nocc1CN(C)C(=O)C(C)Cl (centres unmarked) [7-M06, 2-chloro-N-[(3-ethyl-1,2-oxazol-4-yl)methyl]-N-methylpropanamide] | 95.1
8 | Cc1nnsc1CNC(=O)C(C)Cl (centres unmarked) [7-M07, 2-chloro-N-[(4-methyl-1,2,3-thiadiazol-5-yl)methyl]propanamide] | 89
9 | CC(Cl)C(=O)NC(Cn1cncn1)c1ccccc1 (centres unmarked) [7-M09, 2-chloro-N-[1-phenyl-2-(1H-1,2,4-triazol-1-yl)ethyl]propanamide] | 90.3
10 | CC(Cl)C(=O)N1CC(c2cc(CO)on2)C1 (centres unmarked) [7-M10, 2-chloro-1-{3-[5-(hydroxymethyl)-1,2-oxazol-3-yl]azetidin-1-yl}propan-1-one] | 84.9
11 | CC(Cl)C(=O)NCCCN1CCc2ccccc2C1 (centres unmarked) [7-M11, 2-chloro-N-[3-(1,2,3,4-tetrahydroisoquinolin-2-yl)propyl]propanamide] | 88.4
12 | Cc1cccc2nc(C3CCN(C(=O)C(C)Cl)CC3)oc12 (centres unmarked) [7-M12, 2-chloro-1-[4-(7-methyl-1,3-benzoxazol-2-yl)piperidin-1-yl]propan-1-one] | 79.6
13 | CC(Cl)C(=O)NCc1cnn2ccccc12 (centres unmarked) [7-M13, 2-chloro-N-({pyrazolo[1,5-a]pyridin-3-yl}methyl)propanamide] | 104
14 | CC(Cl)C(=O)N(C)C1CS(=O)(=O)c2ccc(Cl)cc21 (centres unmarked) [7-M14, 2-chloro-N-(5-chloro-1,1-dioxo-2,3-dihydro-1lambda6-benzothiophen-3-yl)-N-methylpropanamide] | 73
15 | CC(Cl)C(=O)N1CC(S(=O)(=O)c2ccccc2F)C1 (centres unmarked) [7-M15, 2-chloro-1-[3-(2-fluorobenzenesulfonyl)azetidin-1-yl]propan-1-one] | 96.3
16 | CC(Cl)C(=O)N1CCCC(c2cnn(C)c2)C1 (centres unmarked) [7-M16, 2-chloro-1-[3-(1-methyl-1H-pyrazol-4-yl)piperidin-1-yl]propan-1-one] | 82
17 | CC(Cl)C(=O)NC(c1cccc(C(F)(F)F)c1)c1nnc[nH]1 (centres unmarked) [7-M17, 2-chloro-N-[(4H-1,2,4-triazol-3-yl)[3-(trifluoromethyl)phenyl]methyl]propanamide] | 75.1
18 | CC(Cl)C(=O)NCCc1cnc2c(Cl)cnn2c1 (centres unmarked) [7-M18, 2-chloro-N-(2-{3-chloropyrazolo[1,5-a]pyrimidin-6-yl}ethyl)propanamide] | 90.6
19 | Cc1cc(NC(=O)CN(C)C(=O)C(C)Cl)no1 (centres unmarked) [7-M19, 2-chloro-N-methyl-N-{[(5-methyl-1,2-oxazol-3-yl)carbamoyl]methyl}propanamide] | 79.5
20 | COCc1ncc2c(n1)CC1CCC2N1C(=O)C(C)Cl (centres unmarked) [7-M20, 2-chloro-1-[5-(methoxymethyl)-4,6,12-triazatricyclo[7.2.1.0,2,7]dodeca-2,4,6-trien-12-yl]propan-1-one] | 77
21 | CC(Cl)C(=O)NC(C)C(=O)N1CCc2ccccc21 (centres unmarked) [7-M21, 2-chloro-N-[1-(2,3-dihydro-1H-indol-1-yl)-1-oxopropan-2-yl]propanamide] | 84.1
22 | CC(NC(=O)CCl)c1nc2c(s1)CCCCC2 (centres unmarked) [7-M22, 2-chloro-N-(1-{4H,5H,6H,7H,8H-cyclohepta[d][1,3]thiazol-2-yl}ethyl)acetamide] | 0.506
23 | O=C(CCl)NC(Cn1cncn1)c1ccccc1 (centres unmarked) [7-N03, 2-chloro-N-[1-phenyl-2-(1H-1,2,4-triazol-1-yl)ethyl]acetamide] | 0.644
24 | N#Cc1cccc(C(NC(=O)CCl)C(F)(F)F)c1 (centres unmarked) [7-N04, 2-chloro-N-[1-(3-cyanophenyl)-2,2,2-trifluoroethyl]acetamide] | 0.24
25 | CC(Cl)C(=O)N1CCN(Cc2nnnn2-c2ccccc2)CC1 (centres unmarked) [7-N05, 2-chloro-1-{4-[(1-phenyl-1H-1,2,3,4-tetrazol-5-yl)methyl]piperazin-1-yl}propan-1-one] | 97.8

Row | SMILES | viability at 48 h, 25 µM [%]
26 | COc1ccc(Cl)cc1C(O)CNC(=O)CCl (centres unmarked) [7-N06, 2-chloro-N-[2-(5-chloro-2-methoxyphenyl)-2-hydroxyethyl]acetamide] | 0.942
27 | CC(Cl)C(=O)N1CCCN(C(=O)c2cc(Cl)cn2C)CC1 (centres unmarked) [7-N07, 2-chloro-1-[4-(4-chloro-1-methyl-1H-pyrrole-2-carbonyl)-1,4-diazepan-1-yl]propan-1-one] | 94.5
28 | O=C(CCl)NCCCC(=O)N1CCCC1 [7-N08, 2-chloro-N-[4-oxo-4-(pyrrolidin-1-yl)butyl]acetamide] | 93.6
29 | O=C(CCl)NC(Cc1ccccc1)c1ccccc1F (centres unmarked) [7-N10, 2-chloro-N-[1-(2-fluorophenyl)-2-phenylethyl]acetamide] | 0.701
30 | CC(Cl)C(=O)NCC(=O)Nc1ccc2c[nH]nc2c1 (centres unmarked) [7-N11, 2-chloro-N-{[(2H-indazol-6-yl)carbamoyl]methyl}propanamide] | 97
31 | O=C(CCl)NCc1ccccc1SC(F)(F)F [7-N12, 2-chloro-N-({2-[(trifluoromethyl)sulfanyl]phenyl}methyl)acetamide] | 0.794
32 | Cc1ccc(C(CNC(=O)C(C)Cl)N2CCOCC2)s1 (centres unmarked) [7-N13, 2-chloro-N-[2-(5-methylthiophen-2-yl)-2-(morpholin-4-yl)ethyl]propanamide] | 108
33 | O=C(CCl)NC1c2ccccc2CCC1n1ccnc1 (centres unmarked) [7-N14, 2-chloro-N-[2-(1H-imidazol-1-yl)-1,2,3,4-tetrahydronaphthalen-1-yl]acetamide hydrochloride] | 95.8
34 | CNC(=O)c1ccc(C2CCCCN2C(=O)C(C)Cl)n1C (centres unmarked) [7-N15, 5-[1-(2-chloropropanoyl)piperidin-2-yl]-N,1-dimethyl-1H-pyrrole-2-carboxamide] | 97.6
35 | CC(NC(=O)CCl)C(=O)N1c2ccccc2CC1C (centres unmarked) [7-N16, 2-chloro-N-[1-(2-methyl-2,3-dihydro-1H-indol-1-yl)-1-oxopropan-2-yl]acetamide] | 0.726
36 | CCc1nc2c(s1)C(N(C)C(=O)C(C)Cl)CCC2 (centres unmarked) [7-N17, 2-chloro-N-(2-ethyl-4,5,6,7-tetrahydro-1,3-benzothiazol-7-yl)-N-methylpropanamide] | 84.1
37 | O=C(CCl)NCC1CCCN(C(=O)C(F)(F)F)C1 (centres unmarked) [7-N18, 2-chloro-N-{[1-(2,2,2-trifluoroacetyl)piperidin-3-yl]methyl}acetamide] | 0.898
38 | CC(Cl)C(=O)NC1Cc2ccccc2N(C(=O)C(F)(F)F)C1 (centres unmarked) [7-N19, 2-chloro-N-[1-(2,2,2-trifluoroacetyl)-1,2,3,4-tetrahydroquinolin-3-yl]propanamide] | 87.1
39 | O=C(CCl)NC(Cc1cccc(O)c1)c1ccccc1 (centres unmarked) [7-N20, 2-chloro-N-[2-(3-hydroxyphenyl)-1-phenylethyl]acetamide] | 0.777
40 | CC(Cl)C(=O)NC(C)c1nnnn1C1CC1 (centres unmarked) [7-N21, 2-chloro-N-[1-(1-cyclopropyl-1H-1,2,3,4-tetrazol-5-yl)ethyl]propanamide] | 75.9
41 | CC(Cl)C(=O)N1Cc2cccn2[C@@H](C)C1 (stereo partly drawn) [7-N22, 2-chloro-1-[(4S)-4-methyl-1H,2H,3H,4H-pyrrolo[1,2-a]pyrazin-2-yl]propan-1-one] | 86.7
42 | CC(Cl)C(=O)NCC1CN(c2nncs2)CCO1 (centres unmarked) [7-O03, 2-chloro-N-{[4-(1,3,4-thiadiazol-2-yl)morpholin-2-yl]methyl}propanamide] | 106
43 | Cc1nc([C@H]2CCCN2C(=O)C(C)Cl)cs1 (stereo partly drawn) [7-O04, 2-chloro-1-[(2R)-2-(2-methyl-1,3-thiazol-4-yl)pyrrolidin-1-yl]propan-1-one] | 95.2
44 | CC(Cl)C(=O)NC1CCN(S(=O)(=O)c2cnn(C)c2)CC1 (centres unmarked) [7-O05, 2-chloro-N-{1-[(1-methyl-1H-pyrazol-4-yl)sulfonyl]piperidin-4-yl}propanamide] | 113
45 | CC(=O)NC1(c2nc(C)cs2)CCN(C(=O)C(C)Cl)C1 (centres unmarked) [7-O06, N-[1-(2-chloropropanoyl)-3-(4-methyl-1,3-thiazol-2-yl)pyrrolidin-3-yl]acetamide] | 114
46 | CC(Cl)C(=O)N1CCN(C(C)C)c2ccccc2C1 (centres unmarked) [7-O07, 2-chloro-1-[1-(propan-2-yl)-2,3,4,5-tetrahydro-1H-1,4-benzodiazepin-4-yl]propan-1-one] | 81.6
47 | CC(Cl)C(=O)NCCc1csc(N2CCCC2)n1 (centres unmarked) [7-O08, 2-chloro-N-{2-[2-(pyrrolidin-1-yl)-1,3-thiazol-4-yl]ethyl}propanamide] | 95.9
48 | CC(Cl)C(=O)N[C@H](CC(N)=O)c1cccc(Cl)c1 (stereo partly drawn) [7-O09, (3R)-3-(3-chlorophenyl)-3-(2-chloropropanamido)propanamide] | 102
49 | Cc1ccc(CNC(=O)C(C)Cl)c2ccccc12 (centres unmarked) [7-O10, 2-chloro-N-[(4-methylnaphthalen-1-yl)methyl]propanamide] | 88.6
50 | Cc1noc(C)c1S(=O)(=O)N1CCCN(C(=O)C(C)Cl)CC1 (centres unmarked) [7-O11, 2-chloro-1-{4-[(3,5-dimethyl-1,2-oxazol-4-yl)sulfonyl]-1,4-diazepan-1-yl}propan-1-one] | 89.5
